Assay results from patent US7169816B2, “4-bromo or 4-iodo phenylamino benzhydroxamic acid derivatives and their use as MEK inhibitors” (Warner-Lambert Company, priority 1997, dated 2007).

Molecular target: p45MEK (GST-MEK) (Homo sapiens, UniProt Q02750)
Test: Cascade assay for inhibitors of the MAP kinase pathway (in vitro)
Assay type: biochemical
Protocol: Incorporation of ^32P into myelin basic protein (MBP) was assayed in the presence of a glutathione S-transferase fusion protein containing p44MAP kinase (GST-MAPK) and a glutathione S-transferase fusion protein containing p45MEK (GST-MEK). The assay solution contained 20 mM HEPES, pH 7.4, 10 mM MgCl2, 1 mM MnCl2, 1 mM EGTA, 50 μM [γ-^32P]ATP, 10 μg GST-MEK, 0.5 μg GST-MAPK and 40 μg MBP in a final volume of 100 μL. […] Compounds were assessed at 10 μM for ability to inhibit incorporation of ^32P.
To ascertain whether compounds were inhibiting GST-MEK or GST MAPK, two additional protocols were employed. In the first protocol, compounds were added to tubes containing GST-MEK, followed by addition of GST-MAPK, MBP and [γ-^32P]ATP. In the second protocol, compounds were added to tubes containing both GST-MEK and GST-MAPK, followed by MBP and [γ-^32P]ATP.

| Compound | IC50 [nM] |
| --- | --- |
| 4-Fluoro-2-(4-iodo-2-methyl-phenylamino)-N-phenylmethoxy-benzamide [Example 77] | 280 |
| Cc1cc(I)ccc1Nc1ccc(Cl)cc1C(=O)NO [Example 4, 5-Chloro-N-hydroxy-2-(4-iodo-2-methyl-phenylamino)-benzamide] | 23 |
| Cc1cc(I)ccc1Nc1ccc(Cl)cc1C(=O)N(C)O [Example 5, 5-Chloro-N-hydroxy-2-(4-iodo-2-methyl-phenylamino)-N-methyl-benzamide] | 566 |
| Cc1cc(I)ccc1Nc1ccc(Cl)cc1C(=O)NOC1CCCCO1 (stereo not shown) [Example 6, 5-Chloro-2-(4-iodo-2-methyl-phenylamino)-N-(terahydropyran-2-yloxy)benzamide] | 345 |
| CONC(=O)c1cc(Cl)ccc1Nc1ccc(I)cc1C [Example 7, 5-Chloro-2-(4-iodo-2-methyl-phenylamino)-N-methoxybenzamide] | 221 |
| Cc1cc(F)ccc1Nc1cc(F)ccc1C(=O)NO [Example 8, 4-Fluoro-N-hydroxy-2-(4-fluoro-2-methyl-phenylamino)-benzamide] | 7130 |
| Cc1ccccc1Nc1cc(F)ccc1C(=O)NO [Example 9, 4-Fluoro-N-hydroxy-2-(2-methylphenylamino)-benzamide] | 409 |
| Cc1cc(I)ccc1Nc1cc(F)ccc1C(=O)NOCc1ccccc1 [Example 12, 4-Fluoro-2-(4-iodo-2-methyl-phenylamino)-N-phenylmethoxy-benzamide] | 826 |
| CONC(=O)c1ccc(F)cc1Nc1ccc(I)cc1C [Example 13, 4-Fluoro-2-(4-iodo-2-methyl-phenylamino)-N-methoxy-benzamide] | 243 |
| CONC(=O)c1ccc(F)c(F)c1Nc1ccc(I)cc1C [Example 14, 3,4-Difluoro-2-(4-iodo-2-methyl-phenylamino)-N-methoxy-benzamide] | 61 |
| CCONC(=O)c1cc(Br)c(F)c(F)c1Nc1ccc(I)cc1C [Example 17, 5-Bromo-N-ethoxy-3,4-difluoro-2-(4-iodo-2-methyl-phenylamino)-benzamide] | 14 |
| Cc1cc(I)ccc1Nc1cc(F)ccc1C(=O)NOCc1ccoc1 [Example 20, 4-Fluoro-N-(furan-3-ylmethoxy)-2-(4-iodo-2-methyl-phenylamino)-benzamide] | 42 |
| Cc1cc(I)ccc1Nc1c(C(=O)NOCc2ccoc2)ccc(F)c1F [Example 21, 3,4-Difluoro-N-(furan-3-ylmethoxy)-2-(4-iodo-2-methyl-phenylamino)-benzamide] | 14 |
| Cc1cc(Br)ccc1Nc1c(C(=O)NOCc2ccoc2)ccc(F)c1F [Example 22, 2-(4-Bromo-2-methyl-phenylamino)-3,4-difluoro-N-(furan-3-ylmethoxy)-benzamide] | 137 |
| Cc1cc(I)ccc1Nc1c(C(=O)NOCc2ccoc2)cc(Br)c(F)c1F [Example 23, 5-Bromo-3,4-difluoro-N-(furan-3-ylmethoxy)-2-(4-iodo-2-methyl-phenylamino)-benzamide] | 16 |
| CC=CCONC(=O)c1cc(Br)c(F)c(F)c1Nc1ccc(I)cc1C [Example 24, 5-Bromo-N-(but-2-enyloxy)-3,4-difluoro-2-(4-iodo-2-methyl-phenylamino)-benzamide] | 21 |
| C#CCONC(=O)c1ccc(F)cc1Nc1ccc(I)cc1C [Example 25, 4-Fluoro-2-(4-iodo-2-methyl-phenylamino)-N-(prop-2-ynyloxy)-benzamide] | 102 |

| Compound | IC50 [nM] |
| --- | --- |
| C#CC(C)ONC(=O)c1ccc(F)c(F)c1Nc1ccc(I)cc1C (stereo not shown) [Example 27, 3,4-Difluoro-2-(4-iodo-2-methyl-phenylamino)-N-(1-methyl-prop-2-ynyloxy)-benzamide] | 26 |
| C#CC(C)ONC(=O)c1ccc(F)c(F)c1Nc1ccc(Br)cc1C (stereo not shown) [Example 28, 2-(4-Bromo-2-methyl-phenylamino)-3,4-difluoro-N-(1-methyl-prop-2-ynyloxy)-benzamide] | 728 |
| C#CCCONC(=O)c1ccc(F)c(F)c1Nc1ccc(I)cc1C [Example 29, N-(But-3-ynyloxy)-3,4-difluoro-2-(4-iodo-2-methyl-phenylamino)-benzamide] | 76 |
| C#CCCONC(=O)c1ccc(F)c(F)c1Nc1ccc(Br)cc1C [Example 30, 2-(4-Bromo-2-methyl-phenylamino)-N-(but-3-ynyloxy)-3,4-difluoro-benzamide] | 971 |
| C#CCCONC(=O)c1cc(Br)c(F)c(F)c1Nc1ccc(I)cc1C [Example 31, 5-Bromo-N-(but-3-ynyloxy)-3,4-difluoro-2-(4-iodo-2-methyl-phenylamino)-benzamide] | 45 |
| Cc1cc(I)ccc1Nc1c(C(=O)NOCC#Cc2ccccc2)ccc(F)c1F [Example 32, 3,4-Difluoro-2-(4-iodo-2-methyl-phenylamino)-N-(3-phenyl-prop-2-ynyloxy)-benzamide] | 17 |
| Cc1cc(Br)ccc1Nc1c(C(=O)NOCC#Cc2ccccc2)ccc(F)c1F [Example 33, 3,4-Difluoro-2-(4-bromo-2-methyl-phenylamino)-N-(3-phenyl-prop-2-ynyloxy)-benzamide] | 374 |
| Cc1cc(I)ccc1Nc1c(C(=O)NOCC#Cc2cccc(F)c2)ccc(F)c1F [Example 34, 3,4-Difluoro-N-[3-(3-fluoro-phenyl)-prop-2-ynyloxy]-2-(4-iodo-2-methyl-phenylamino)-benzamide] | 113 |
| Cc1cc(I)ccc1Nc1c(C(=O)NOCC#Cc2ccccc2F)ccc(F)c1F [Example 36, 3,4-Difluoro-N-[3-(2-fluoro-phenyl)-prop-2-ynyloxy]-2-(4-iodo-2-methyl-phenylamino)-benzamide] | 56 |
| Cc1cc(I)ccc1Nc1c(C(=O)NOCC#Cc2ccccc2F)cc(Br)c(F)c1F [Example 37, 5-Bromo-3,4-difluoro-N-[3-(2-fluoro-phenyl)-prop-2-ynyloxy]-2-(4-iodo-2-methyl-phenylamino)-benzamide] | 2 |
| CC(C#Cc1ccccc1)=CCONC(=O)c1ccc(F)c(F)c1Nc1ccc(Br)cc1C [Example 39, 2-(4-Bromo-2-methyl-phenylamino)-3,4-difluoro-N-(3-methyl-5-phenyl-pent-2-en-4-ynyloxy)-benzamide] | 147 |
| CCONC(=O)c1ccc(F)c(F)c1Nc1ccc(I)cc1C [Example 40, N-Ethoxy-3,4-difluoro-2-(4-iodo-2-methyl-phenylamino)-benzamide] | 28 |
| CCONC(=O)c1ccc(F)c(F)c1Nc1ccc(Br)cc1C [Example 41, 2-(4-Bromo-2-methyl-phenylamino)-N-ethoxy-3,4-difluoro-benzamide] | 236 |
| CCCONC(=O)c1ccc(F)cc1Nc1ccc(I)cc1C [Example 42, 4-Fluoro-2-(4-iodo-2-methyl-phenylamino)-N-propoxy-benzamide] | 87 |
| CCCONC(=O)c1ccc(F)c(F)c1Nc1ccc(I)cc1C [Example 43, 3,4-Difluoro-2-(4-iodo-2-methyl-phenylamino)-N-propoxy-benzamide] | 40 |
| CCCONC(=O)c1ccc(F)c(F)c1Nc1ccc(Br)cc1C [Example 44, 2-(4-Bromo-2-methyl-phenylamino)-3,4-difluoro-N-propoxy-benzamide] | 475 |
| CCCONC(=O)c1cc(Br)c(F)c(F)c1Nc1ccc(I)cc1C [Example 45, 5-Bromo-3,4-difluoro-2-(4-iodo-2-methyl-phenylamino)-N-propoxy-benzamide] | 126 |
